The structures appear in SMILES notation.

The series relates to rats. The series is described as follows: 4-hour single-inhalation exposure test (OECD Guideline No. 436). In kind it is in vivo. Here is the method:
A 4-hour single-inhalation exposure test was performed on rats by using a mist of HCFO-1223xd according to the OECD Guideline No. 436.

Regarding `FC(F)(F)C(Cl)=CCl` [HCFO-1223xd, 1,2-dichloro-3,3,3-trifluoropropene], the “death of rats on inhalation exposure” value (4-hour single inhalation, mist at a concentration of 5 mg/L) is reported as “No death of the rats was observed”. Besides, the acute toxicity result (4-hour single-inhalation exposure, OECD Guideline No. 436) was “low acute toxicity”.

Values taken from patent US11981883B2, “Composition containing 1,2-dichloro-3,3,3-trifluoropropene” (DAIKIN INDUSTRIES, LTD., priority 2018, dated 2024).
